Active and inactive are the calls of the source. The rule behind the calls is not given here.
What was measured:
MDA-MB-468 = assay: Growth inhibition of human MDA-MB-468 cells after 48 hrs by sulforhodamine B assay; type: functional; conditions: MDA-MB-468, 48 h
Mus musculus [1] = assay: Toxicity in ICR mouse assessed as mortality at 112.5 mg/kg, iv; type: organism-based; set-up: dose 112.5 mg/kg, route intravenous; conditions: in vivo
MDA-MB-231 [2] = assay: Antitumor activity against human MDA-MB-231 cells xenografted in nu/nu BALB/c mouse assessed as tumor growth inhibition at 10 mg/kg, ip qd for 24 days measured on day 25 relative to control; type: functional; conditions: MDA-MB-231, ip, route intraperitoneal, read-out: GI
MDA-MB-231 [3] = assay: Antitumor activity against human MDA-MB-231 cells xenografted in nu/nu BALB/c mouse assessed as tumor growth inhibition at 20 mg/kg, ip qd for 24 days measured on day 25 relative to control; type: functional; conditions: MDA-MB-231, ip, route intraperitoneal, read-out: GI
MDA-MB-231 [4] = assay: Antitumor activity against human MDA-MB-231 cells xenografted in nu/nu BALB/c mouse assessed as tumor growth inhibition at 30 mg/kg, ip qd for 12 days measured on day 25 relative to control; type: functional; conditions: MDA-MB-231, ip, route intraperitoneal, read-out: GI
MCF7 [5] = assay: Antitumor activity against human MCF7 cells xenografted in nu/nu BALB/c mouse assessed as tumor growth inhibition at 30 mg/kg, ip qd for 12 days measured on day 36 relative to control; type: functional; conditions: route intraperitoneal, read-out: GI
A2780 = assay: Antitumor activity against human A2780 cells xenografted in nu/nu BALB/c mouse assessed as tumor growth inhibition at 30 mg/kg, ip qd for 12 days measured on day 25 relative to control; type: functional; conditions: route intraperitoneal, read-out: GI
NCI-H460 = assay: Antitumor activity against human H460 cells xenografted in nu/nu BALB/c mouse assessed as tumor growth inhibition at 5 mg/kg, ip qd for 24 days measured on day 25 relative to control; type: functional; conditions: route intraperitoneal, read-out: GI
A549 = assay: Antitumor activity against human A549 cells xenografted in nu/nu BALB/c mouse assessed as tumor growth inhibition at 30 mg/kg, ip qd for 12 days measured on day 25 relative to control; type: functional; conditions: route intraperitoneal, read-out: GI
Mus musculus [6] = assay: Toxicity in human cancer cells xenografted in nu/nu BALB/c mouse assessed as mortality at 5 to 30 mg/kg, ip qd for 24 days; type: organism-based, Cancer cell lines; set-up: dose 5-30 mg/kg, route intraperitoneal; conditions: in vivo, 576 h
Mus musculus [7] = assay: Toxicity in mouse LLC cells xenografted C57BL/6 mouse assessed as decrease in body weight at 10 mg/kg, ip qd for 15 days; type: organism-based; set-up: dose 10 mg/kg, route intraperitoneal; conditions: in vivo, 360 h
4T1 [8] = assay: Antitumor activity against mouse 4T1 cells xenografted in […] mouse assessed as tumor growth inhibition at 2.5 mg/kg, ip qd for 28 days relative to control; type: functional; conditions: 4T1, ip, 672 h, route intraperitoneal, read-out: GI
4T1 [9] = assay: Antitumor activity against mouse 4T1 cells xenografted in […] mouse assessed as tumor growth inhibition at 10 mg/kg, ip qd for 28 days relative to control; type: functional; conditions: 4T1, ip, 672 h, route intraperitoneal, read-out: GI
4T1 [10] = assay: Antimetastatic activity against mouse 4T1 cells xenografted in […] mouse assessed as inhibition of lung metastasis at 2.5 to 10 mg/kg, ip qd for 28 days; type: functional, organism-based
Mus musculus [11] = assay: Antimetastatic activity against mouse 4T1 cells xenografted in BALB/c mouse assessed as reduction of myeloid derived suppressor cells accumulation in spleen at 5 mg/kg, ip qd for 23 days by flow cytometry analysis relative to control; type: functional; set-up: scale not given: the % may be the effect or the level left; conditions: route intraperitoneal
Mus musculus [12] = assay: Antimetastatic activity against mouse 4T1 cells xenografted in BALB/c mouse assessed as reduction of myeloid derived suppressor cells accumulation in bone marrow at 5 mg/kg, ip qd for 23 days by flow cytometry analysis relative to control; type: functional; set-up: scale not given: the % may be the effect or the level left; conditions: route intraperitoneal
KETR3 = assay: Cytotoxicity against human Ketr3 cells after 72 hrs by MTT assay; type: functional, cell-based
PC-3M = assay: Cytotoxicity against human PC3M cells after 72 hrs by MTT assay; type: functional, cell-based
CCRF-CEM = assay: Growth inhibition of human CCRF-CEM cells after 48 hrs by sulforhodamine B assay; type: functional
HL-60(TB) = assay: Growth inhibition of human HL-60(TB) cells after 48 hrs by sulforhodamine B assay; type: functional; conditions: HL-60, 48 h
K562 = assay: Growth inhibition of human K562 cells after 48 hrs by sulforhodamine B assay; type: functional; conditions: K562, 48 h
SR = assay: Growth inhibition of human SR cells after 48 hrs by sulforhodamine B assay; type: functional
NCI-H23 = assay: Growth inhibition of human NCI-H23 cells after 48 hrs by sulforhodamine B assay; type: functional; conditions: NCI-H23, 48 h
NCI-H322M = assay: Growth inhibition of human NCI-H322M cells after 48 hrs by sulforhodamine B assay; type: functional
COLO 205 = assay: Growth inhibition of human COLO205 cells after 48 hrs by sulforhodamine B assay; type: functional; conditions: COLO 205, 48 h
HCC 2998 = assay: Growth inhibition of human HCC2998 cells after 48 hrs by sulforhodamine B assay; type: functional; conditions: HCC 2998, 48 h
KM12 = assay: Growth inhibition of human KM12 cells after 48 hrs by sulforhodamine B assay; type: functional; conditions: KM12, 48 h
SF-268 = assay: Growth inhibition of human SF268 cells after 48 hrs by sulforhodamine B assay; type: functional; conditions: SF-268, 48 h
SF-295 = assay: Growth inhibition of human SF295 cells after 48 hrs by sulforhodamine B assay; type: functional; conditions: SF-295, 48 h
SNB-75 = assay: Growth inhibition of human SNB75 cells after 48 hrs by sulforhodamine B assay; type: functional; conditions: SNB-75, 48 h
LOX IMVI = assay: Growth inhibition of human LOXIMVI cells after 48 hrs by sulforhodamine B assay; type: functional
Malme-3M = assay: Growth inhibition of human MALME-3M cells after 48 hrs by sulforhodamine B assay; type: functional
SK-MEL-2 = assay: Growth inhibition of human SK-MEL-2 cells after 48 hrs by sulforhodamine B assay; type: functional; conditions: SK-MEL-2, 48 h
IGROV-1 = assay: Growth inhibition of human IGROV1 cells after 48 hrs by sulforhodamine B assay; type: functional; conditions: IGROV-1, 48 h
786-0 = assay: Growth inhibition of human 786-0 cells after 48 hrs by sulforhodamine B assay; type: functional; conditions: 786-0, 48 h
A498 = assay: Growth inhibition of human A498 cells after 48 hrs by sulforhodamine B assay; type: functional; conditions: A498, 48 h
RXF 393 = assay: Growth inhibition of human RXF393 cells after 48 hrs by sulforhodamine B assay; type: functional; conditions: RXF 393, 48 h
TK-10 = assay: Growth inhibition of human TK10 cells after 48 hrs by sulforhodamine B assay; type: functional; conditions: TK-10, 48 h
DU-145 = assay: Growth inhibition of human DU145 cells after 48 hrs by sulforhodamine B assay; type: functional; conditions: DU-145, 48 h
MCF7 [13] = assay: Growth inhibition of human MCF7 cells after 48 hrs by sulforhodamine B assay; type: functional; conditions: MCF7, 48 h
NCI/ADR-RES = assay: Growth inhibition of human NCI/ADR-RES cells after 48 hrs by sulforhodamine B assay; type: functional
BT-549 = assay: Growth inhibition of human BT549 cells after 48 hrs by sulforhodamine B assay; type: functional; conditions: BT-549, 48 h

CC(=O)O[C@H]1C(=O)[C@@]2(C)[C@H]([C@H](OC(=O)c3ccccc3)[C@]3(O)C[C@H](OC(=O)[C@H](OC(=O)CCC(=O)NCCCC[C@H](NC(=O)CC[C@H](NC(=O)[C@H](C)NC(=O)/C=C/c4ccc(Cl)cc4)C(N)=O)C(N)=O)[C@H](NC(=O)c4ccccc4)c4ccccc4)C(C)=C1C3(C)C)[C@]1(OC(C)=O)CO[C@@H]1C[C@@H]2O
GI50 (MDA-MB-468): < 10 nM | Activity (Mus musculus [1]): Non-toxic | inhibition in vivo at 10 mg/kg (MDA-MB-231 [2]): 37.3% | inhibition in vivo at 20 mg/kg (MDA-MB-231 [3]): 72.2% | inhibition in vivo at 30 mg/kg (MDA-MB-231 [4]): 87% | inhibition in vivo at 30 mg/kg (MCF7 [5]): 100% | inhibition in vivo at 30 mg/kg (A2780): 45.2% | inhibition in vivo at 5 mg/kg (NCI-H460): 2.15% | inhibition in vivo at 30 mg/kg (A549): 79.9% | Activity (Mus musculus [6]): Non-toxic | Activity (Mus musculus [7]): Non-toxic | inhibition in vivo at 2.5 mg/kg (4T1 [8]): 27.4% | inhibition in vivo at 10 mg/kg (4T1 [9]): 45.9% | growth inhibition (GI) (4T1 [10]): Active | Activity (Mus musculus [11]): 22% | Activity (Mus musculus [12]): 45.3% | Activity (KETR3): Active | Activity (PC-3M): Active | GI50 (CCRF-CEM): < 10 nM | GI50 (HL-60(TB)): < 10 nM | GI50 (K562): < 10 nM | GI50 (SR): < 10 nM | GI50 (NCI-H23): < 10 nM | GI50 (NCI-H322M): < 10 nM | GI50 (COLO 205): < 10 nM | GI50 (HCC 2998): < 10 nM | GI50 (KM12): < 10 nM | GI50 (SF-268): < 10 nM | GI50 (SF-295): < 10 nM | GI50 (SNB-75): < 10 nM | GI50 (LOX IMVI): < 10 nM | GI50 (Malme-3M): < 10 nM | GI50 (SK-MEL-2): < 10 nM | GI50 (IGROV-1): < 10 nM | GI50 (786-0): < 10 nM | GI50 (A498): < 10 nM | GI50 (RXF 393): < 10 nM | GI50 (TK-10): < 10 nM | GI50 (DU-145): < 10 nM | GI50 (MCF7 [13]): < 10 nM | GI50 (NCI/ADR-RES): < 10 nM | GI50 (BT-549): < 10 nM

Reference: ChEMBL document CHEMBL1773045, “Conjugate (MTC-220) of muramyl dipeptide analogue and paclitaxel prevents both tumor growth and metastasis in mice” (J Med Chem, 2011)
